Key:
Assay in all cases: relative viability (nuclei count vs DMSO), 5 days (fraction); higher = more cells survive
Tivantinib + Palbociclib = compound: O=C1NC(=O)[C@@H](c2cn3c4c(cccc24)CCC3)[C@@H]1c1c[nH]c2ccccc12 [Tivantinib] + CC(=O)c1c(C)c2cnc(Nc3ccc(N4CCNCC4)cn3)nc2n(C2CCCC2)c1=O [Palbociclib] (partner 0.5 µM)
Procedure, shortened: (§1)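 The day after seeding in 1536-well plates, lung cancer cell lines were treated by pin tool with a single drug, or with a fixed anchor-drug dose together with five library-drug doses (not always all listed) in √10 steps. After 5 days, a combined fix-and-stain solution (final 0.05% Triton X-100, 1% formaldehyde, 1 ug/ml Hoechst) was added. Nuclei counted on 4× images gave relative viability as treated counts over vehicle counts, reported as the median of duplicate plates.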

Tivantinib + Tozasertib = compound: O=C1NC(=O)[C@@H](c2cn3c4c(cccc24)CCC3)[C@@H]1c1c[nH]c2ccccc12 [Tivantinib] + Cc1cc(Nc2cc(N3CCN(C)CC3)nc(Sc3ccc(NC(=O)C4CC4)cc3)n2)n[nH]1 [Tozasertib] (partner 0.1 µM)
Procedure, shortened: as §1

Tivantinib + Alpelisib = compound: O=C1NC(=O)[C@@H](c2cn3c4c(cccc24)CCC3)[C@@H]1c1c[nH]c2ccccc12 [Tivantinib] + Cc1nc(NC(=O)N2CCC[C@H]2C(N)=O)sc1-c1ccnc(C(C)(C)C(F)(F)F)c1 [Alpelisib] (partner 2 µM)
Procedure, shortened: as §1

Tivantinib + Phenformin = compound: O=C1NC(=O)[C@@H](c2cn3c4c(cccc24)CCC3)[C@@H]1c1c[nH]c2ccccc12 [Tivantinib] + N=C(N)NC(=N)NCCc1ccccc1 [Phenformin] (partner 250 µM)
Procedure, shortened: as §1

Cell Line	relative viability (Tivantinib + Palbociclib; first compound 0.01 µM)	relative viability (Tivantinib + Palbociclib; first compound 0.03162 µM)	relative viability (Tivantinib + Palbociclib; first compound 0.1 µM)	relative viability (Tivantinib + Palbociclib; first compound 0.3162 µM)	relative viability (Tivantinib + Tozasertib; first compound 0.01 µM)	relative viability (Tivantinib + Tozasertib; first compound 0.03162 µM)	relative viability (Tivantinib + Tozasertib; first compound 0.1 µM)	relative viability (Tivantinib + Tozasertib; first compound 0.3162 µM)	relative viability (Tivantinib + Alpelisib; first compound 0.01 µM)	relative viability (Tivantinib + Alpelisib; first compound 0.03162 µM)	relative viability (Tivantinib + Alpelisib; first compound 0.1 µM)	relative viability (Tivantinib + Alpelisib; first compound 0.3162 µM)	relative viability (Tivantinib + Phenformin; first compound 0.01 µM)	relative viability (Tivantinib + Phenformin; first compound 0.03162 µM)	relative viability (Tivantinib + Phenformin; first compound 0.1 µM)	relative viability (Tivantinib + Phenformin; first compound 0.3162 µM)
LC-2-ad	0.46	0.442	0.515	0.456	0.455	0.409	0.393	0.313	0.889	0.93	0.847	0.904	0.563	0.491	0.595	0.541
LCLC-97TM1	0.271	0.257	0.172	0.225	0.25	0.218	0.25	0.218	0.237	0.215	0.2	0.198	0.456	0.496	0.453	0.388
LCLC-103H	0.477	0.449	0.486	0.409	0.426	0.493	0.474	0.374	0.905	0.938	0.839	0.86	0.327	0.312	0.378	0.374
LK-2	0.643	0.472	0.69	0.369	0.177	–	0.199	0.191	1.24	–	0.58	0.668	0.44	–	0.314	0.339
LOU-NH91	0.557	0.543	0.527	0.541	0.663	0.675	0.593	0.537	0.663	0.695	0.742	0.533	0.689	0.715	0.702	0.615
LU99A	0.393	0.427	0.392	0.366	0.261	0.276	0.266	0.291	0.477	0.477	0.453	0.369	0.852	0.805	0.804	0.942
LXF-289	0.563	0.563	0.545	0.584	0.176	0.129	0.202	0.204	1.06	1.01	1.03	1.04	0.536	0.542	0.528	0.504
NCI-H23	0.614	0.457	0.462	0.493	0.447	0.359	0.423	0.308	0.778	0.623	0.717	0.557	0.732	0.886	0.749	0.792
NCI-H322M	0.519	0.484	0.475	–	0.483	0.458	0.502	–	0.699	0.891	0.719	0.546	0.753	0.708	0.754	–
NCI-H358	0.172	0.16	0.151	0.0952	0.109	0.0982	0.0902	0.0802	0.911	0.78	0.827	0.365	0.339	0.327	0.282	0.189
NCI-H441	0.224	0.209	0.199	0.212	0.587	0.655	0.552	0.474	0.736	0.648	–	0.76	0.872	0.84	0.777	0.828

Reference: the supplement of paper PMC10307832
